Columns and labels:
[1] = system: C3H/HeJ mice; experiment: Topical treatment of ear, epidermal pigmentation (Fontana Masson); type: in vivo, mouse; conditions: topical on right ear, twice a day for two weeks
Description: Melanocytes also exist in the epidermis at specific areas of mouse skin (e.g., pinnae) (Nordlund et al., Dermatol Clin., 4(3): 407-418 (1986)); thus, these areas were studied to examine the role of sAC in epidermal pigmentation. For analysis of epidermal pigmentation, using C3H/HeJ mice as above, 20 μl of KH7 ([…]), LRE1 (28 mg/ml) or DMSO (vehicle control) was topically applied on the right ear and DMSO was topically applied on the left ear twice a day for two weeks. Ear skin was monitored daily for irritation and changes in pigmentation. After two weeks, mice were euthanized and the treated skin was submitted to a blinded animal pathologist for histological evaluation of the epidermis and special stains (Fontana Masson). This experiment was performed twice with 3 mice per cohort (total n=6)

[2] = system: human melanocytes; experiment: DAMP melanosome pH assay (HMB45 co-staining); type: cell-based; conditions: 4 hours, KH7 30 μM, cAMP 500 μM, H89 10 μM, ESI-09 10 μM
Description: (§1) N-{3-[(2,4-dinitrophenyl)amino]propyl}-N-(3-aminopropyl)methylamine dihydrochloride (DAMP) is a weakly basic amine that is taken up in acidic organelles of live cells and which has been used to measure melanosome pH (Bin et al., PLOS One, 10(6):e0129273 (2015); Tabata et al., Cell Tissue Res., 332(3): 447-460 (2008)). Cells were cultured on sterile glass coverslips in 24-mm wells at 50×10^3 cells/coverslip. […] After permeabilization with 0.1% Triton X-100 in Buffer A at −20° C., the cells were labeled with the supplied anti-DNP antibody (Oxford Biomedical Research) according to kit protocol. Melanosomes were identified using the monoclonal antibody (anti-HMB45, 1:40, Santa Cruz Biotechnology). Fluorescence was detected after secondary staining with Alexa Fluor 546 donkey anti-goat IgG antibody (Invitrogen) and Alexa Fluor 647 donkey anti-mouse IgG antibody (Invitrogen). All quantitative analyses were performed using the Object Count tool in Nikon AR 4.60. For each image, the lower intensity threshold limit of each fluorescence channel was defined as the intensity of the dimmest punctum returned using the 3 points circle threshold tool. The upper intensity threshold limit was set to the maximum value. Equivalent diameter (EqDiameter) was restricted to 1.85-30.00 pixels. Circularity was restricted to 0.20-1.00. Mean fluorescence intensity was measured for all DAMP^+ puncta. Melanosomes were identified as HMB45^+ puncta. DAMP measurements were only recorded when colocalized with HMB45. Frequency distributions were generated for each sample from mean DAMP fluorescence intensity of DAMP^+ melanosomes. All analyses were performed on two replicate coverslips (n≥15 cells per coverslip). Melanosomes were first identified as TRP1^+ or tyrosinase^+ puncta. sAC^+ melanosomes were identified as R52^+ or R21^+ puncta colocalizing with TRP1^+ or tyrosinase^+ puncta. The degree of colocalization between sAC and melanosomes was calculated as the number of sAC+ melanosomes divided by the total number of melanosomes and expressed as a percentage.
The effect of sAC inhibition on melanosome pH was also assessed in human melanocytes.

[3] = system: C3H/HeJ mice; experiment: Topical treatment of epilated back skin, hair pigmentation; type: in vivo, mouse
Description: Therefore, experiments were performed to determine whether inhibition of sAC in animals could alter hair pigmentation. Animal experiments were performed in accordance with approved Institutional Animal Care and Use Committee protocol at Weill Cornell Medicine. Age and gender matched C3H/HeJ mice (female, 7 weeks old) were purchased from The Jackson Laboratory. For the analysis of hair pigmentation, the upper and lower dorsum of each mouse were epilated using hair removal wax. 10 μl of KH7 (42 mg/ml in DMSO), LRE1 (28 mg/ml in DMSO) or DMSO (vehicle control) was topically applied onto the upper back and DMSO was applied to the lower back three times a day over two weeks. These mice were monitored for changes in coat color as the epilated hair grew back. Hair was removed from each treated area after 3 weeks to measure the length of the total hair, apical black tip and subapical agouti (pheomelanin) band under a stereo microscope. Mice were euthanized and the treated skin was submitted to a blinded animal pathologist for histological evaluation of the epidermis and hair follicles. This experiment was performed twice with 3-4 mice per cohort (total n=6-7)

[4] = system: sAC^KO mouse melanocytes; experiment: DAMP melanosome pH assay (HMB45 co-staining); type: cell-based; conditions: 4 hours, KH7 30 μM, cAMP analogs 500 μM, ESI-09 10 μM, MSH 100 nM
Description: as §1
(§2) The effect of pharmacologic inhibition of sAC was also measured using the DAMP assay described above. Briefly, Cells were cultured on sterile glass coverslips in 24-mm wells at 50×10^3 cells/coverslip and treated or not treated for 4 hours with 30 μM KH7 or LRE1. […] After permeabilization with 0.1% Triton X-100 in Buffer A at −20° C., the cells were labeled with the supplied anti-DNP antibody (Oxford Biomedical Research) according to kit protocol. Melanosomes were identified using the monoclonal antibody (anti-HMB45, 1:40, Santa Cruz Biotechnology). Fluorescence was detected after secondary staining with Alexa Fluor 546 donkey anti-goat IgG antibody (Invitrogen) and Alexa Fluor 647 donkey anti-mouse IgG antibody (Invitrogen). All images were acquired using a Zeiss LSM 880 and analyzed using NIS-Elements AR 4.60 (Nikon).

[5] = system: sAC^FF mouse melanocytes; experiment: DAMP melanosome pH assay (HMB45 co-staining); type: cell-based; conditions: KH7 30 μM, 4 hours
Description: as §1, §2

[6] = topical on back, hair removed after 3 weeks

SMILES: CC(Sc1nc2ccccc2[nH]1)C(=O)N/N=C/c1cc(Br)ccc1O (stereo not shown) [KH7]
- colour of ear epidermis relative to vehicle control ([1]; 20 μl KH7 or LRE1 (28 mg/ml)): induced visual darkening of mouse ear epidermis
- epidermal melanin accumulation (Fontana Masson) [1]: increase in epidermal melanin accumulation
- melanosome pH (DAMP), substance alone [2]: alkaline shift in melanosome pH
- eumelanin production in hair (microscopic examination) [3, 6]: increase in eumelanin production
- length of the agouti (pheomelanin) band [3, 6]: reduction in length of the agouti (pheomelanin) band
- histologic examination of treated skin ([3]; topical on back, two weeks): did not reveal any pathological change to the hair follicles or epidermis
- colour of regrown hair versus vehicle control ([3]; topical on epilated back, 10 μl KH7 42 mg/ml or LRE1 28 mg/ml in DMSO, three times a day over two weeks): visual darkening of regrown hair
- melanosome pH (DAMP), substance alone [4]: had no effect
- HMB45 staining intensity ([5]; mouse melanocytes): had no effect
- melanosome pH (DAMP uptake at HMB45 positive melanosomes), substance alone ([5]; sAC^FF mouse melanocytes, cAMP 500 μM, H89 10 μM, PKI 10 μM, ESI-09 10 μM): reduction in DAMP uptake (alkaline shift in pH)

— patent US11680264B2, “Methods of modulating melanosome pH and melanin level in cells” (Cornell University, priority 2016, dated 2023)
